In patent publication US20040110693A1, “Agent for treating diabetes mellitus” (priority 2001, published 2004):
Several values for one entry are separate records, joined by “and”; a condition that tells them apart may be missing. Equal entries are not always repeated.

What was measured:
type II diabetics = assay: Short-term experiments with alpha-glucosidase inhibitors and bulk materials: blood sugar increase after test breakfast; conditions: for action compared with bulk material: levelling of blood sugar increase after eating; for Hypoglycemia, MG 100, mean value: mean of 6 cases
Experimental: After measurement of the fasting blood sugar in the morning, 20 type II diabetics received a test breakfast (75 g of white bread, 20 g of butter, 40 g of jam or, as a sugar-free variant, 75 g of white bread, 20 g of butter and 40 g of cheese). On the control days, before the test breakfast 75 ml of yoghurt were given, and on the test days the various bulk materials were given in 75 ml of yoghurt. […] After the test breakfast, the blood sugar values were measured at ½ to 1 hour intervals for 2-4 hours. Each short-term experiment was carried out two to three times with the individual subjects. The respective average values are indicated.
The basis for the evaluation is the graphic representation of the blood sugar values as curves. The increasing phase of the blood sugar lasting 1-2 hours is determined planimetrically and considered as a measure of the lower limit of glucose absorption. In the first hour after the test breakfast, under physical quasi-resting conditions the increase in the blood sugar curve ought to reflect the intestinal glucose absorption into the blood almost unadulteratedly on the morning of the experiment in the diabetic differently from in the healthy person. Beyond the first hour, even in most type II diabetics an insulin response commences more or less clearly which levels off the blood sugar increase, or conversely in any case leads to a corresponding underestimation of the glucose absorption. […] The planimetric evaluation of all curves is then extended until achieving the peak of the last curve. […] For practical reasons, we compare the increasing phases of the blood sugar curves under the various experimental conditions (control, after bulk material, in the later experiments also after alpha-glucosidase inhibitors) with one another and calculate from this the degree of hypoglycemia based on the control curve. […] The statistical evaluation, which is possible only in the short-term experiments on account of the amounts of data, is carried out using the student's t test in a paired comparison.
21 patients were investigated: 10 each received acarbose and miglitol, 1 patient first acarbose and then miglitol. The individual dose used was 25-100 mg.
Immediately before the test meals described above, the subjects received either a) 75 ml of yoghurt (control experiment) or b) bulk material in yoghurt (bulk curve) or c) a tablet of acarbose or miglitol and then 75 ml of yoghurt (alpha-GI curve) or d) this medicament 5 minutes before taking bulk material in yoghurt (bulk-plus alpha-GI curve). As described, the blood sugar values were determined before and for 3 hours after the test meal.

normal persons = assay: Side effects in normal persons after 50-75 g of sucrose instead of test breakfast; type: in vivo, human; conditions: 100 mg
[1] = 50 mg on its own (acarbose 2 cases, miglitol 8 cases)

concomitant symptoms (type II diabetics; [1])	concomitant symptoms (type II diabetics; 25 mg on its own (5 cases))	patients with semiliquid stools as far as diarrhea (type II diabetics; on its own, short-term experiments)	Structure (SMILES)	Hypoglycemia (decrease in the blood sugar increase after a test breakfast), Alpha-GI (type II diabetics; AB 50 mg, individual patient)	Hypoglycemia (decrease in the blood sugar increase after a test breakfast), Alpha-GI (type II diabetics; AB 100 mg, individual patient)	action compared with bulk material (type II diabetics)	symptoms after 50-75 g of sucrose (normal persons)	Hypoglycemia (decrease in the blood sugar increase after a test breakfast), Alpha-GI (type II diabetics; MG 25 mg, individual patient)	Hypoglycemia (decrease in the blood sugar increase after a test breakfast), Alpha-GI (type II diabetics; MG 50 mg, individual patient)	Hypoglycemia (decrease in the blood sugar increase after a test breakfast), Alpha-GI (type II diabetics; MG 100 mg, individual patient)	Hypoglycemia, MG 100 (type II diabetics; miglitol 100 mg on its own, individual patient)	Hypoglycemia, MG 100, mean value (type II diabetics; miglitol 100 mg on its own) [%]	Hypoglycemia, MG 100, mean value (type II diabetics; miglitol 100 mg on its own, listed as miglitol) [%]
no clear concomitant symptoms	–	–	CC1OC(OC2C(CO)OC(OC3C(CO)OC(O)C(O)C3O)C(O)C2O)C(O)C(O)C1NC1C=C(CO)[C@@H](O)[C@H](O)[C@H]1O (stereo partly shown) [AB, acarbose]	42% and 50%	41% and 63% (2×) and 56% and 65% and 6% and 55% and 39% and 58% and 59%	considerably stronger action than bulk material	abdominal pain and diarrhea occurred	–	–	–	–	–	–
no clear concomitant symptoms	no clear concomitant symptoms	4 of 9 patients	OCCN1C[C@H](O)[C@@H](O)[C@H](O)[C@H]1CO [MG, miglitol]	–	–	considerably stronger action than bulk material	abdominal pain and diarrhea occurred	27% and 47% and 12% and 53% and 49% and 24%	33% and 40% and 37% and 62% (2×) and 25% and 59% and 71%	24% and 60% and 80% and 59% and 32% and 66% and 75% and 34% and 73%	66% and 75% and 34% and 80% and 59% and 32%	57.7	58
